Assay results reported in PMC11597697, “Chemical Composition and Bioactivity Dataset Integration to Identify Antiproliferative Compounds in Phyllanthus Plants” (Pharmaceutics, 2024).
Read-outs that look alike come from different tables or passages of the source.

Legend:
[1] = tested on: SiHa (cervical carcinoma); assay: Antiproliferative MTT assay, SiHa; assay type: cell-based; details: Homo sapiens
Protocol: (§1) Human cancer cell lines—prostatic adenocarcinoma (PC-3, ATCC CRL-7934), lung adenocarcinoma (A549, ATCC CCL-185), and cervical carcinoma (SiHa, ATCC HTB-35)—along with normal mouse fibroblasts (L929, ATCC CRL-6364) were cultured as monolayers in Dulbecco’s Modified Eagle Medium (DMEM) supplemented with 10% (v/v) fetal bovine serum (FBS), 1% (v/v) penicillin, and 1% (v/v) streptomycin. These cultures were maintained at 37 °C in a humidified atmosphere with 5% CO2. The antiproliferative effects of Phyllanthus-derived extracts and isolated compounds were evaluated using a previously described method. Cells were seeded at 5 × 10^3/well in 96-well plates (100 µL) and incubated for 24 h. After incubation, the medium was replaced with 100 µL of serum-free medium containing varying concentrations of the treatments (0.5–250 µg/mL for extracts and 0.01–100 µg/mL for pure compounds). Each treatment was tested in triplicate. Controls included a PBS-containing medium as a blank, 1% (w/v) bovine serum albumin-amended medium as a negative control (100% survival), and podophyllotoxin (0.16–100 µg/mL) as a positive control. After 48 h of treatment, cell viability was determined by adding 10 µL of MTT (5 mg/mL) to each well, followed by a 3-h incubation under the same culture conditions. The resulting formazan crystals were dissolved in 100 µL of DMSO, and absorbance was measured at 570 nm using a Varioskan LUX 96-well plate reader (Thermo Fisher Scientific, Waltham, MA, USA). The antiproliferative effects were quantified as the half-maximal inhibitory concentration (IC50) in µg/mL for extracts and µM for pure compounds. Dose–response curves were used to determine IC50 values from non-linear regression using GraphPad 7.0 (GraphPad, San Diego, CA, USA).

A549 (lung carcinoma) = assay: Antiproliferative MTT assay, A549; assay type: cell-based; details: Homo sapiens, read-out: IC50 A549
Protocol: as §1

[2] = tested on: PC-3 (prostate adenocarcinoma); assay: Antiproliferative MTT assay, PC-3; assay type: cell-based; details: Homo sapiens, read-out: IC50 PC-3
Protocol: as §1

[3] = tested on: L929 (murine fibroblasts); assay: Antiproliferative MTT assay, normal fibroblasts L929; assay type: cell-based, mouse; details: for IC50: Mus musculus, read-out: IC50 L929
Protocol: as §1

[4] = pure compounds, 48 h treatment, MTT, read-out: IC50 SiHa
[5] = A549, pure compounds, 48 h treatment, MTT
[6] = pure compounds, 48 h treatment, MTT
[7] = L929, pure compounds, 48 h treatment, MTT, normal cell line

Row | Compound | IC50 [1, 4] [µM] | IC50 (A549 (lung carcinoma); [5]) [µM] | IC50 [2, 6] [µM] | IC50 [3, 7] [µM] | IC50 L929 ([3]; pure compounds, 48 h treatment, MTT, normal cell line) | IC50 ([1]; 48 h, read-out: IC50 SiHa, pure compounds, 48 h treatment, MTT) [µM] | IC50 (A549 (lung carcinoma); A549, 48 h) [µM] | IC50 ([2]; 48 h) [µM] | IC50 ([3]; L929, 48 h) [µM] | IC50 ([1]; 48 h, read-out: IC50 SiHa) [µM]
1 | COc1cc(C=C2C(=O)OCC2Cc2ccc(O)c(OC)c2)ccc1O (single isomer, unassigned; (+)) [Compound 2, (+)-acutissimalignan B] | 56.8 | 78.6 | 6.55 | > 100 | no observed cytotoxicity | – | – | – | – | –
2 | COc1cc(-c2c3c(c(OC)c4cc5c(cc24)OCO5)C(OC(C)=O)OC3=O)cc2c1OCO2 (single isomer, unassigned; (+)) [Compound 6, (+)-5-methoxy-9-(7-methoxybenzo[d][1,3]dioxol-5-yl)-8-oxo-6,8-dihydrofuro[3′,4′:6,7]naphtho[2,3-d][1,3]dioxol-6-yl acetate] | – | – | – | – | – | 3.62 | 26.5 | 15.3 | 86.3 | –
3 | COc1cc2c(OC)c3c(c(-c4ccc5c(c4)OCO5)c2cc1O)C(=O)OC3 [Compound 3, phyllanthusmin A] | 8.61 | 93.2 | 16.3 | 92.3 | – | – | – | – | – | –
4 | O=C1OC[C@H](Cc2ccc3c(c2)OCO3)[C@H]1Cc1ccc2c(c1)OCO2 [Compound 4, (−)-hinokinin] | 61.2 | 12.3 | 4.55 | 76.3 | – | – | – | – | – | –
5 | COc1cc2c(OC)c3c(c(-c4ccc5c(c4)OCO5)c2cc1OC)C(=O)OC3 [Compound 5, justicidin A] | 6.53 | 50.3 | 17.6 | > 100 | – | – | – | – | – | –
6 | COc1cc2c(OC)c3c(c(-c4ccc5c(c4)OCO5)c2cc1OC)C(=O)OC3OC (centres unmarked) [Compound 7, justicidin P] | 5.23 | 45.3 | 15.2 | > 100 | – | – | – | – | – | –
7 | COc1cc([C@@H]2c3cc4c(cc3[C@H](O)[C@H]3COC(=O)[C@H]23)OCO4)cc(OC)c1OC [ppt, podophyllotoxin, reference compound] | – | – | – | – | – | – | 4.82 | 2.22 | 2.53 | 1.85
